Results reported in ChEMBL document CHEMBL3045921, “Synthesis and Acaricidal Activity of Pyrazole-5-carboxamide Derivatives” (1991).

Experiments:
Assay type in all cases: functional
Conditions in all cases: 120 h
[1] = tested on: Tetranychus urticae; assay: Acaricidal activity against Tetranychus urticae (two-spotted spider mite) in kidney bean leaf assessed as mortality at 50 ppm at 25 degC measured after 5 days
[2] = tested on: Tetranychus urticae; assay: Acaricidal activity against Tetranychus urticae (two-spotted spider mite) in kidney bean leaf assessed as mortality at 12.5 ppm at 25 degC measured after 5 days
[3] = tested on: Tetranychus urticae; assay: Acaricidal activity against Tetranychus urticae (two-spotted spider mite) in kidney bean leaf assessed as mortality at 3.1 ppm at 25 degC measured after 5 days
[4] = tested on: Tetranychus urticae; assay: Acaricidal activity against Tetranychus urticae (two-spotted spider mite) in kidney bean leaf assessed as mortality at 200 ppm at 25 degC measured after 5 days
[5] = tested on: Tetranychus urticae; assay: Acaricidal activity against Tetranychus urticae (two-spotted spider mite) in kidney bean leaf assessed as mortality at 500 ppm at 25 degC measured after 5 days

SMILES	mortality at 50 ppm [1]	mortality at 12.5 ppm [2]	mortality at 3.1 ppm [3]	mortality at 200 ppm [4]	mortality at 500 ppm [5]
CCCCCCCCc1ccc(CNC(=O)c2c(Cl)c(CC)nn2C)cc1	30%	0%	0%	80%	100%
CCc1nn(C)c(C(=O)NCc2ccc([N+](=O)[O-])cc2)c1Cl	0%			0%	0%
CCc1nn(C)c(C(=O)NCc2ccc(CC(C)C)cc2)c1Cl	80%	30%	0%	100%	100%
CCc1nn(C)c(C(=O)NCc2ccc(C(C)CC)cc2)c1Cl (stereo not given)	100%	0%	0%	100%	100%
CCCCCc1ccc(CNC(=O)c2c(Cl)c(CC)nn2C)cc1	100%	80%	30%	100%	100%
CCc1nn(C)c(C(=O)NCc2ccc(CC(C)(C)C)cc2)c1Cl	100%	80%	0%	100%	100%
CCCCCCc1ccc(CNC(=O)c2c(Cl)c(CC)nn2C)cc1	30%	0%	0%	80%	100%
CCc1nn(C)c(C(=O)NCc2ccc([Si](C)(C)C)cc2)c1Cl	100%	80%	0%	100%	100%
CCc1nn(C)c(C(=O)NCc2ccc(OC)cc2)c1Cl	0%			0%	0%
CCOc1ccc(CNC(=O)c2c(Cl)c(CC)nn2C)cc1	0%			0%	0%
CCCOc1ccc(CNC(=O)c2c(Cl)c(CC)nn2C)cc1	0%			80%	100%
CCc1nn(C)c(C(=O)NCc2ccc(OC(C)C)cc2)c1Cl	0%			30%	80%
CCCCOc1ccc(CNC(=O)c2c(Cl)c(CC)nn2C)cc1	30%			80%	100%
CCc1nn(C)c(C(=O)NCc2ccc(OC(F)F)cc2)c1Cl	0%			30%	80%
CCc1nn(C)c(C(=O)NCc2ccc(OCC(F)(F)F)cc2)c1Cl	0%			30%	80%
CCOCCOc1ccc(CNC(=O)c2c(Cl)c(CC)nn2C)cc1	0%			30%	80%
CCOCc1ccc(CNC(=O)c2c(Cl)c(CC)nn2C)cc1	0%			80%	100%
CCc1nn(C)c(C(=O)NCc2ccc(N)cc2)c1Cl	0%			0%	0%
CCCNc1ccc(CNC(=O)c2c(Cl)c(CC)nn2C)cc1	0%			0%	80%
CCc1nn(C)c(C(=O)NCc2ccc(SC)cc2)c1Cl	0%			80%	100%
CCc1nn(C)c(C(=O)NCc2ccc([S+](C)[O-])cc2)c1Cl (stereo not given)	0%			0%	0%
CCc1nn(C)c(C(=O)NCc2ccc(S(C)(=O)=O)cc2)c1Cl	0%			0%	0%
CCc1nn(C)c(C(=O)NCc2ccc(C#N)cc2)c1Cl	0%			0%	0%
CCc1nn(C)c(C(=O)NCc2ccc(C(F)(F)F)cc2)c1Cl	30%			80%	100%

SMILES	mortality at 50 ppm [1]	mortality at 12.5 ppm [2]	mortality at 3.1 ppm [3]	mortality at 200 ppm [4]	mortality at 500 ppm [5]
CCc1nn(C)c(C(=O)NCc2ccc(Br)cc2)c1Cl	0%			0%	0%
Cc1nn(C)c(C(=S)NCc2ccc(C(C)(C)C)cc2)c1Cl	0%			30%	80%
Cc1n[nH]c(C(=O)NCc2ccc(C(C)(C)C)cc2)c1Cl	0%			0%	0%
CCn1nc(C)c(Cl)c1C(=O)NCc1ccc(C(C)(C)C)cc1	0%			0%	0%
Cc1nn(C(C)C)c(C(=O)NCc2ccc(C(C)(C)C)cc2)c1Cl	0%			0%	0%
CCCCn1nc(C)c(Cl)c1C(=O)NCc1ccc(C(C)(C)C)cc1	0%			0%	0%
Cc1nn(-c2ccccc2)c(C(=O)NCc2ccc(C(C)(C)C)cc2)c1Cl	0%			0%	0%
Cc1nn(Cc2ccccc2)c(C(=O)NCc2ccc(C(C)(C)C)cc2)c1Cl	0%			0%	0%
Cc1nn(C(F)F)c(C(=O)NCc2ccc(C(C)(C)C)cc2)c1Cl	0%			0%	0%
Cc1nn(C)c(C(=O)NC(C)(C)C)c1Br	0%			0%	0%
Cc1nn(C)c(C(=O)Nc2ccc(C(C)(C)C)cc2)c1Br	0%			0%	0%
Cc1nn(C)c(C(=O)NCc2ccccc2)c1Br	0%			0%	0%
Cc1nn(C)c(C(=O)NC(C)c2ccccc2)c1Br (stereo not given)	0%			0%	0%
Cc1nn(C)c(C(=O)NC(C)(C)c2ccccc2)c1Br	0%			0%	0%
Cc1nn(C)c(C(=O)NC(c2ccccc2)C(C)C)c1Cl (stereo not given)	0%			0%	0%
Cc1nn(C)c(C(=O)NC(c2ccccc2)c2ccccc2)c1Br	0%			0%	0%
Cc1nn(C)c(C(=O)NC(C)c2ccc(C(C)(C)C)cc2)c1Br (stereo not given)	80%			100%	100%
Cc1nn(C)c(C(=O)NCc2ccccc2C(F)(F)F)c1Cl	0%			0%	0%
Cc1nn(C)c(C(=O)NCc2cccc(C(F)(F)F)c2)c1Cl	0%			0%	0%
Cc1nn(C)c(C(=O)NCc2ccc(C(F)(F)F)cc2)c1Cl	80%			100%	100%
Cc1nn(C)c(C(=O)N(C)Cc2ccc(C(C)(C)C)cc2)c1Cl	0%			0%	0%
Cc1nn(C)c(C(=O)OCc2ccc(C(C)(C)C)cc2)c1Br	0%			0%	0%
Cc1nn(C)c(C(=O)SCc2ccc(C(C)(C)C)cc2)c1Cl	0%			0%	30%
